Activity calls are given as the source filed them. The rule behind the calls is not given here.
Key:
Mus musculus [1] = test: Inhibition of anti-CD3 antibody-induced IFNgamma production in Balb/c mouse dosed intravenously 5 mins before anti-CD3 antibody injection and measured 2 hrs post-challenge by ELISA; assay type: functional, organism-based
[2] = biological target: T1, Dual specificity mitogen-activated protein kinase kinase 7 (Homo sapiens, UniProt O14733); test: Inhibition of GST-tagged human MKK7 expressed in Escherichia coli (BL21(DE3) pLysS) co-expressing human MEKK catalytic domain using biotinylated and GST-tagged rat GST-KN-SAPKalpha substrate incubated for 1 hr by time-resolved fluorescence based assay
T1 sequence (O14733 whole entry): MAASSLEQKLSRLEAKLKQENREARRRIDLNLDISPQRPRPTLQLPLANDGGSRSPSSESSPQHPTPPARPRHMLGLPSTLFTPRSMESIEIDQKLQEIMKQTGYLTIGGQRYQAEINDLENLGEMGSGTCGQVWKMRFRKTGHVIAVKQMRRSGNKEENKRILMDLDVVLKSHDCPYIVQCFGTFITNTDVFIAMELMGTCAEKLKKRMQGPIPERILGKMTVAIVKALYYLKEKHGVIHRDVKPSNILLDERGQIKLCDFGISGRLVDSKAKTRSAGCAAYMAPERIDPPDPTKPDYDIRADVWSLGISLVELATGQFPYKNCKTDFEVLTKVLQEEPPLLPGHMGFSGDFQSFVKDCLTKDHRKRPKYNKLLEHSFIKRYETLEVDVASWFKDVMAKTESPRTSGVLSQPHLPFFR

Mus musculus [3] = test: Inhibition of anti-CD3 antibody-induced IL4 production in Balb/c mouse dosed intravenously 5 mins before anti-CD3 antibody injection and measured 2 hrs post-challenge by ELISA; assay type: functional, organism-based
Mus musculus [4] = test: Inhibition of anti-CD3 antibody-induced IL2 production in Balb/c mouse dosed intravenously 5 mins before anti-CD3 antibody injection and measured 2 hrs post-challenge by ELISA; assay type: functional, organism-based

NC(=O)c1ccc2[nH]c3ncnc(N4CCCC(N)C4)c3c2c1 (centres undefined)
inhibition (Mus musculus [1]): Active | IC50 [2]: < 1000 nM | inhibition (Mus musculus [3]): Active | inhibition (Mus musculus [4]): Active

OCC1CCCN(c2ncnc3[nH]c4ccc(O)cc4c23)C1 (centres undefined)
inhibition (Mus musculus [1]): Active | IC50 [2]: < 1000 nM | inhibition (Mus musculus [3]): Active | inhibition (Mus musculus [4]): Active

CC1CCCCN1c1nc(N)nc2[nH]c3ccc(O)cc3c12 (centres undefined)
inhibition (Mus musculus [1]): Active | IC50 [2]: < 1000 nM | inhibition (Mus musculus [3]): Active | inhibition (Mus musculus [4]): Active

COC1CCN(c2ncnc3[nH]c4ccc(O)cc4c23)CC1
inhibition (Mus musculus [1]): Active | IC50 [2]: < 1000 nM | inhibition (Mus musculus [3]): Active | inhibition (Mus musculus [4]): Active

CN(CCO)c1nc(N)nc2[nH]c3ccc(O)cc3c12
inhibition (Mus musculus [1]): Active | IC50 [2]: < 1000 nM | inhibition (Mus musculus [3]): Active | inhibition (Mus musculus [4]): Active

OCCC1CCCN(c2ncnc3[nH]c4ccc(O)cc4c23)C1 (centres undefined)
inhibition (Mus musculus [1]): Active | IC50 [2]: < 1000 nM | inhibition (Mus musculus [3]): Active | inhibition (Mus musculus [4]): Active

COC1CCN(c2nc(N)nc3[nH]c4ccc(O)cc4c23)CC1
inhibition (Mus musculus [1]): Active | IC50 [2]: < 1000 nM | inhibition (Mus musculus [3]): Active | inhibition (Mus musculus [4]): Active

NC(=O)c1ccc2[nH]c3ncnc(N4CCOCC4)c3c2c1
inhibition (Mus musculus [1]): Active | IC50 [2]: < 1000 nM | inhibition (Mus musculus [3]): Active | inhibition (Mus musculus [4]): Active

Oc1ccc2[nH]c3ncnc(N4CCCCC4)c3c2c1
inhibition (Mus musculus [1]): Active | IC50 [2]: < 1000 nM | inhibition (Mus musculus [3]): Active | inhibition (Mus musculus [4]): Active

NC(=O)c1ccc2[nH]c3ncnc(NC4CCCC4)c3c2c1
inhibition (Mus musculus [1]): Active | IC50 [2]: < 1000 nM | inhibition (Mus musculus [3]): Active | inhibition (Mus musculus [4]): Active

C[C@@H](CO)Nc1ncnc2[nH]c3ccc(O)cc3c12
inhibition (Mus musculus [1]): Active | IC50 [2]: < 1000 nM | inhibition (Mus musculus [3]): Active | inhibition (Mus musculus [4]): Active

NC(=O)c1ccc2[nH]c3nc(N)nc(N4CCCCC4)c3c2c1
inhibition (Mus musculus [1]): Active | IC50 [2]: < 1000 nM | inhibition (Mus musculus [3]): Active | inhibition (Mus musculus [4]): Active

Nc1nc(N2CCC(Br)CC2)c2c(n1)[nH]c1ccc(O)cc12
inhibition (Mus musculus [1]): Active | IC50 [2]: < 1000 nM | inhibition (Mus musculus [3]): Active | inhibition (Mus musculus [4]): Active

CC(C)(C)OC(=O)NCCCNc1ncnc2[nH]c3ccc(C(N)=O)cc3c12
inhibition (Mus musculus [1]): Active | IC50 [2]: < 1000 nM | inhibition (Mus musculus [3]): Active | inhibition (Mus musculus [4]): Active

OCCC1CCCCN1c1ncnc2[nH]c3ccc(O)cc3c12 (centres undefined)
inhibition (Mus musculus [1]): Active | IC50 [2]: < 1000 nM | inhibition (Mus musculus [3]): Active | inhibition (Mus musculus [4]): Active

O=C(O)C1CCN(c2ncnc3[nH]c4ccc(O)cc4c23)CC1
inhibition (Mus musculus [1]): Active | IC50 [2]: < 1000 nM | inhibition (Mus musculus [3]): Active | inhibition (Mus musculus [4]): Active

NC(=O)c1ccc2[nH]c3ncnc(N4CCC(O)CC4)c3c2c1
inhibition (Mus musculus [1]): Active | IC50 [2]: < 1000 nM | inhibition (Mus musculus [3]): Active | inhibition (Mus musculus [4]): Active

Nc1nc(NC2CCCCC2)c2c(n1)[nH]c1ccc(O)cc12
inhibition (Mus musculus [1]): Active | IC50 [2]: < 1000 nM | inhibition (Mus musculus [3]): Active | inhibition (Mus musculus [4]): Active

CC1CC(C)CN(c2ncnc3[nH]c4ccc(C(N)=O)cc4c23)C1 (centres undefined)
inhibition (Mus musculus [1]): Active | IC50 [2]: < 1000 nM | inhibition (Mus musculus [3]): Active | inhibition (Mus musculus [4]): Active

CCC1CCCCN1c1ncnc2[nH]c3ccc(O)cc3c12 (centres undefined)
inhibition (Mus musculus [1]): Active | IC50 [2]: < 1000 nM | inhibition (Mus musculus [3]): Active | inhibition (Mus musculus [4]): Active

CC(O)CNc1ncnc2[nH]c3ccc(O)cc3c12 (centres undefined)
inhibition (Mus musculus [1]): Active | IC50 [2]: < 1000 nM | inhibition (Mus musculus [3]): Active | inhibition (Mus musculus [4]): Active

OCCCCN1CCN(c2ncnc3[nH]c4ccc(O)cc4c23)CC1
inhibition (Mus musculus [1]): Active | IC50 [2]: < 1000 nM | inhibition (Mus musculus [3]): Active | inhibition (Mus musculus [4]): Active

Oc1ccc2[nH]c3ncnc(N4CCC[C@@H](O)C4)c3c2c1
inhibition (Mus musculus [1]): Active | IC50 [2]: < 1000 nM | inhibition (Mus musculus [3]): Active | inhibition (Mus musculus [4]): Active

Oc1ccc2[nH]c3ncnc(N4CCC(O)C4)c3c2c1 (centres undefined)
inhibition (Mus musculus [1]): Active | IC50 [2]: < 1000 nM | inhibition (Mus musculus [3]): Active | inhibition (Mus musculus [4]): Active

Cc1nc(N2CCCC2)c2c(n1)[nH]c1ccc(O)cc12
inhibition (Mus musculus [1]): Active | IC50 [2]: 1000 nM | inhibition (Mus musculus [3]): Active | inhibition (Mus musculus [4]): Active

Cc1nc(N2CCOCC2)c2c(n1)[nH]c1ccc(O)cc12
inhibition (Mus musculus [1]): Active | IC50 [2]: 1000 nM | inhibition (Mus musculus [3]): Active | inhibition (Mus musculus [4]): Active

Oc1ccc2[nH]c3ncnc(N4CCCCCC4)c3c2c1
inhibition (Mus musculus [1]): Active | IC50 [2]: < 1000 nM | inhibition (Mus musculus [3]): Active | inhibition (Mus musculus [4]): Active

CN(C)c1ncnc2[nH]c3ccc(O)cc3c12
inhibition (Mus musculus [1]): Active | IC50 [2]: < 1000 nM | inhibition (Mus musculus [3]): Active | inhibition (Mus musculus [4]): Active

CNc1nc(C)nc2[nH]c3ccc(O)cc3c12
inhibition (Mus musculus [1]): Active | IC50 [2]: 1000 nM | inhibition (Mus musculus [3]): Active | inhibition (Mus musculus [4]): Active

Cc1nc(NC(C)CO)c2c(n1)[nH]c1ccc(OCc3ccccc3)cc12 (centres undefined)
inhibition (Mus musculus [1]): Active | IC50 [2]: < 1000 nM | inhibition (Mus musculus [3]): Active | inhibition (Mus musculus [4]): Active

NC(=O)c1ccc2[nH]c3ncnc(N(CCO)Cc4ccccc4)c3c2c1
inhibition (Mus musculus [1]): Active | IC50 [2]: < 1000 nM | inhibition (Mus musculus [3]): Active | inhibition (Mus musculus [4]): Active

Oc1ccc2[nH]c3ncnc(N[C@H]4CC[C@H](O)CC4)c3c2c1
inhibition (Mus musculus [1]): Active | IC50 [2]: < 1000 nM | inhibition (Mus musculus [3]): Active | inhibition (Mus musculus [4]): Active

CC1CCCN(c2nc(N)nc3[nH]c4ccc(O)cc4c23)C1 (centres undefined)
inhibition (Mus musculus [1]): Active | IC50 [2]: < 1000 nM | inhibition (Mus musculus [3]): Active | inhibition (Mus musculus [4]): Active

CC(CO)Nc1ncnc2[nH]c3ccc(C(N)=O)cc3c12 (centres undefined)
inhibition (Mus musculus [1]): Active | IC50 [2]: < 1000 nM | inhibition (Mus musculus [3]): Active | inhibition (Mus musculus [4]): Active

Oc1ccc2[nH]c3ncnc(NC4CCCC4)c3c2c1
inhibition (Mus musculus [1]): Active | IC50 [2]: < 1000 nM | inhibition (Mus musculus [3]): Active | inhibition (Mus musculus [4]): Active

OCC1(Nc2ncnc3[nH]c4ccc(O)cc4c23)CCCC1
inhibition (Mus musculus [1]): Active | IC50 [2]: < 1000 nM | inhibition (Mus musculus [3]): Active | inhibition (Mus musculus [4]): Active

Oc1ccc2[nH]c3ncnc(NCCc4c[nH]cn4)c3c2c1
inhibition (Mus musculus [1]): Active | IC50 [2]: < 1000 nM | inhibition (Mus musculus [3]): Active | inhibition (Mus musculus [4]): Active

Oc1ccc2[nH]c3ncnc(N4CCOCC4)c3c2c1
inhibition (Mus musculus [1]): Active | IC50 [2]: < 1000 nM | inhibition (Mus musculus [3]): Active | inhibition (Mus musculus [4]): Active

Oc1ccc2[nH]c3ncnc(N4CCC(O)(Cc5ccccc5)CC4)c3c2c1
inhibition (Mus musculus [1]): Active | IC50 [2]: < 1000 nM | inhibition (Mus musculus [3]): Active | inhibition (Mus musculus [4]): Active

NC(=O)c1ccc2[nH]c3ncnc(N4CCC(CCO)CC4)c3c2c1
inhibition (Mus musculus [1]): Active | IC50 [2]: < 1000 nM | inhibition (Mus musculus [3]): Active | inhibition (Mus musculus [4]): Active

CCN(CC)c1nc(C)nc2[nH]c3ccc(O)cc3c12
inhibition (Mus musculus [1]): Active | IC50 [2]: 1000 nM | inhibition (Mus musculus [3]): Active | inhibition (Mus musculus [4]): Active

NC(=O)c1ccc2[nH]c3ncnc(N4CCCC4)c3c2c1
inhibition (Mus musculus [1]): Active | IC50 [2]: < 1000 nM | inhibition (Mus musculus [3]): Active | inhibition (Mus musculus [4]): Active

CC1CCCCN1c1ncnc2[nH]c3ccc(O)cc3c12 (centres undefined)
inhibition (Mus musculus [1]): Active | IC50 [2]: < 1000 nM | inhibition (Mus musculus [3]): Active | inhibition (Mus musculus [4]): Active

NC(=O)c1ccc2[nH]c3ncnc(N4CCC(CO)CC4)c3c2c1
inhibition (Mus musculus [1]): Active | IC50 [2]: < 1000 nM | inhibition (Mus musculus [3]): Active | inhibition (Mus musculus [4]): Active

Nc1nc(NCc2ccccc2)c2c(n1)[nH]c1ccc(O)cc12
inhibition (Mus musculus [1]): Active | IC50 [2]: < 1000 nM | inhibition (Mus musculus [3]): Active | inhibition (Mus musculus [4]): Active

NC1CCN(c2ncnc3[nH]c4ccc(O)cc4c23)CC1
inhibition (Mus musculus [1]): Active | IC50 [2]: < 1000 nM | inhibition (Mus musculus [3]): Active | inhibition (Mus musculus [4]): Active

Cc1nc(N2CCC(C)CC2)c2c(n1)[nH]c1ccc(O)cc12
inhibition (Mus musculus [1]): Active | IC50 [2]: < 1000 nM | inhibition (Mus musculus [3]): Active | inhibition (Mus musculus [4]): Active

NC(=O)C1CCN(c2ncnc3[nH]c4ccc(O)cc4c23)CC1
inhibition (Mus musculus [1]): Active | IC50 [2]: < 1000 nM | inhibition (Mus musculus [3]): Active | inhibition (Mus musculus [4]): Active

CC1CC(C)CN(c2ncnc3[nH]c4ccc(O)cc4c23)C1 (centres undefined)
inhibition (Mus musculus [1]): Active | IC50 [2]: 1000 nM | inhibition (Mus musculus [3]): Active | inhibition (Mus musculus [4]): Active

CC(CO)Nc1ncnc2[nH]c3ccc(O)cc3c12 (centres undefined)
inhibition (Mus musculus [1]): Active | IC50 [2]: < 1000 nM | inhibition (Mus musculus [3]): Active | inhibition (Mus musculus [4]): Active

Nc1nc(N2CCOCC2)c2c(n1)[nH]c1ccc(O)cc12
inhibition (Mus musculus [1]): Active | IC50 [2]: < 1000 nM | inhibition (Mus musculus [3]): Active | inhibition (Mus musculus [4]): Active

Source: ChEMBL document CHEMBL3714742, “Pyrimido (4,5-b) indole derivatives” (2003)
